Molecules are shown by their SMILES. Bridge positions count the residues as written; N and C are the ends. Peptide text beside a SMILES is read from it.

Usually IC50 stands for the concentration needed to halve the response being measured. High values mean lower potency, low ones higher potency.

This assay deals with Sodium channel protein type 5 subunit alpha (Homo sapiens, UniProt Q14524). Nature of the assay: Inhibition of human NaV1.5 at -140 mV holding potential by whole-cell patch clamp assay. For orientation: The patch-clamp technique gives a direct electrical read-out from membranes.
Sodium channel protein type 5 subunit alpha, sequence (Q14524 whole entry): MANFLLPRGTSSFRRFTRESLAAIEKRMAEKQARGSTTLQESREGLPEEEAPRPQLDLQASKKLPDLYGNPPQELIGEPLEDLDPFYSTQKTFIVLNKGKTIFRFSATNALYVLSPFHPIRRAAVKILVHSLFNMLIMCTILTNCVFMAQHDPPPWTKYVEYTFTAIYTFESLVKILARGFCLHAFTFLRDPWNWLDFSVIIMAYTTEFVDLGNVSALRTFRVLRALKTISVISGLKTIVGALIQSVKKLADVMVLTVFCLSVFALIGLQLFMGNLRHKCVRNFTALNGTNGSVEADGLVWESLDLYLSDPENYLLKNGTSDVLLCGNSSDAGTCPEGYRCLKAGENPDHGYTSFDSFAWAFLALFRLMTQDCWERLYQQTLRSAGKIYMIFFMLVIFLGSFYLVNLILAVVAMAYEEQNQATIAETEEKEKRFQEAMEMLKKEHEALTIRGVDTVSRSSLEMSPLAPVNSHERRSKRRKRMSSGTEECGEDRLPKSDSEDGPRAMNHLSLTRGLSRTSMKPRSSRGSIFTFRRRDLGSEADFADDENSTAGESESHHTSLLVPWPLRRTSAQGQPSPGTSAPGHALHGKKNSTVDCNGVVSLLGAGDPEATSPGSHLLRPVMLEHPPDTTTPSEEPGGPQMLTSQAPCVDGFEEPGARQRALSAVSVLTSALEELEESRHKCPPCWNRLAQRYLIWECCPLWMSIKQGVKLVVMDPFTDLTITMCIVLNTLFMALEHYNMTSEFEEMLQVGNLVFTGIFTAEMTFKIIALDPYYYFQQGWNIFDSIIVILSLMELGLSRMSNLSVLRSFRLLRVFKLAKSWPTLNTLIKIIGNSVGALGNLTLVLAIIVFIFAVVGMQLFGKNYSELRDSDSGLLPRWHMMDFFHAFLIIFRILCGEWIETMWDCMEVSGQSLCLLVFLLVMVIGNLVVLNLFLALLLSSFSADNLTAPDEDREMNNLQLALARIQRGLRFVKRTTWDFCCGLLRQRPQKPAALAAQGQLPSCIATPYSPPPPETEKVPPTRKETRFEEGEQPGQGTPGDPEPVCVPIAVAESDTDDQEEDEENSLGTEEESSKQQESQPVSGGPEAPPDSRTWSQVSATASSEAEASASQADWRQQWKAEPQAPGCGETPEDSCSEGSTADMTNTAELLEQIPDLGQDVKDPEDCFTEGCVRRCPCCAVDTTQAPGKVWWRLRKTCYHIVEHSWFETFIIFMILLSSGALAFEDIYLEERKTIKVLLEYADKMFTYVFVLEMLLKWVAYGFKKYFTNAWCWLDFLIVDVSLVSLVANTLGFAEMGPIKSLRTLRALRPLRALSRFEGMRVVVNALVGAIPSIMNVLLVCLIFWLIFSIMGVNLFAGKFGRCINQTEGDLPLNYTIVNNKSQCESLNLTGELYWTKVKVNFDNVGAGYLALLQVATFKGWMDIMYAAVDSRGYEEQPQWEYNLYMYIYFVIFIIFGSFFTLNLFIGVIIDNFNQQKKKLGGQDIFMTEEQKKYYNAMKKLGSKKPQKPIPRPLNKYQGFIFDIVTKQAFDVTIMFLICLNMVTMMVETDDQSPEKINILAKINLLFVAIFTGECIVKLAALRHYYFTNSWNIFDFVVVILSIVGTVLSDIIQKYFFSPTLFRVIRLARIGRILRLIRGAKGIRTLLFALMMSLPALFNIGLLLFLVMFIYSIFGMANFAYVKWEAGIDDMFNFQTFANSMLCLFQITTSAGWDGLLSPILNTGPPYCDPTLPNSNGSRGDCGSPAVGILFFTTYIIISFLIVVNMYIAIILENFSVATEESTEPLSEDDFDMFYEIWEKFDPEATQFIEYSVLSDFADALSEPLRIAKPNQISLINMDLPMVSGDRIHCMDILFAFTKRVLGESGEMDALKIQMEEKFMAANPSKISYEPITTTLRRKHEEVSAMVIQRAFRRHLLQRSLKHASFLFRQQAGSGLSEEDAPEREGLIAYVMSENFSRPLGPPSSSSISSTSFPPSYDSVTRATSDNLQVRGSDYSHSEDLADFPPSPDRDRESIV
Compound `CC[C@H](C)[C@@H]1NC(=O)[C@@H]2CSSC[C@@H]3NC(=O)[C@H](C(C)C)NC(=O)[C@H](CC(C)C)NC(=O)[C@H](CC(N)=O)NC(=O)[C@@H]4CCCN4C(=O)[C@H](CCCNC(=N)N)NC(=O)[C@H](CSSC[C@H](NC(=O)[C@@H](N)CC(=O)O)C(=O)N[C@@H](CC(C)C)C(=O)NCC(=O)N[C@@H](Cc4ccccc4)C(=O)N[C@@H](CCSC)C(=O)N[C@@H](CCCNC(=N)N)C(=O)N[C@@H](CCCCN)C(=O)N2)NC(=O)[C@H](CSSC[C@@H](C(=O)N[C@@H](CCCCN)C(=O)N[C@@H](Cc2ccc(O)cc2)C(=O)N[C@H](C(=O)N[C@@H](Cc2ccccc2)C(N)=O)C(C)C)NC(=O)[C@H](Cc2c[nH]c4ccccc24)NC(=O)[C@H](CCCCN)NC(=O)[C@H](Cc2cnc[nH]2)NC(=O)[C@H]([C@@H](C)O)NC(=O)[C@H](CCCNC(=N)N)NC(=O)[C@H](CO)NC3=O)NC(=O)[C@H](CCCCN)NC(=O)[C@H](CC(=O)O)NC(=O)[C@H](CC(N)=O)NC(=O)[C@H](C)NC(=O)[C@@H]2CCCN2C1=O` (H-DCLGFMRKCIPANDKCCRPNLVCSRTHKWCKYVF-NH2; disulfide 2-17, 9-23, 16-30) displayed a half-inhibitory concentration (IC50) above 5 µM. In the case of `CC[C@H](C)[C@@H]1NC(=O)[C@@H]2CSSC[C@@H]3NC(=O)[C@H](C(C)C)NC(=O)[C@H](CC(C)C)NC(=O)[C@H](CC(N)=O)NC(=O)[C@@H]4CCCN4C(=O)[C@H](CCCNC(=N)N)NC(=O)[C@H](CSSC[C@H](NC(=O)[C@@H](N)CC(=O)O)C(=O)N[C@@H](CC(C)C)C(=O)NCC(=O)N[C@@H](Cc4ccccc4)C(=O)N[C@@H](CCSC)C(=O)N[C@@H](CCCNC(=N)N)C(=O)N[C@@H](CCCCN)C(=O)N2)NC(=O)[C@H](CSSC[C@@H](C(=O)N[C@@H](CCCCN)C(=O)N[C@@H](Cc2ccc(O)cc2)C(=O)N[C@H](C(=O)N[C@@H](Cc2ccccc2)C(N)=O)C(C)C)NC(=O)[C@H](Cc2c[nH]c4ccccc24)NC(=O)[C@H](CCCCN)NC(=O)[C@H](Cc2cnc[nH]2)NC(=O)[C@H]([C@@H](C)O)NC(=O)[C@H](CCCNC(=N)N)NC(=O)[C@H](C)NC3=O)NC(=O)[C@H](CCCCN)NC(=O)[C@H](CC(=O)O)NC(=O)[C@H](CC(N)=O)NC(=O)[C@H](CC(=O)O)NC(=O)[C@@H]2CCCN2C1=O` (H-DCLGFMRKCIPDNDKCCRPNLVCARTHKWCKYVF-NH2; disulfide 2-17, 9-23, 16-30), the IC50 was above 4.7 µM.

In turn, `CC[C@H](C)[C@@H]1NC(=O)[C@@H]2CSSC[C@@H]3NC(=O)[C@H](C(C)C)NC(=O)[C@H](CC(C)C)NC(=O)[C@H](CC(N)=O)NC(=O)[C@@H]4CCCN4C(=O)[C@H](CCCNC(=N)N)NC(=O)[C@H](CSSC[C@H](NC(=O)[C@@H](N)CC(=O)O)C(=O)N[C@@H](CC(C)C)C(=O)NCC(=O)N[C@@H](C4CCCC4)C(=O)N[C@@H](CCSC)C(=O)N[C@@H](CCCNC(=N)N)C(=O)N[C@@H](CCCCN)C(=O)N2)NC(=O)[C@H](CSSC[C@@H](C(=O)N[C@@H](CCCCN)C(=O)N[C@@H](Cc2ccc(O)cc2)C(=O)N[C@H](C(=O)N[C@@H](Cc2ccccc2)C(N)=O)C(C)C)NC(=O)[C@H](Cc2c[nH]c4ccccc24)NC(=O)[C@H](CCCCN)NC(=O)[C@H](Cc2cnc[nH]2)NC(=O)[C@H]([C@@H](C)O)NC(=O)[C@H](CCCNC(=N)N)NC(=O)[C@H](CO)NC3=O)NC(=O)[C@H](CCCCN)NC(=O)[C@H](CC(=O)O)NC(=O)[C@H](CC(N)=O)NC(=O)[C@H](CC(=O)O)NC(=O)[C@@H]2CCCN2C1=O` yielded an IC50 above 10 µM.

Take `CSCC[C@@H]1NC(=O)[C@H](Cc2ccccc2)NC(=O)CNC(=O)[C@H](CC(C)C)NC(=O)[C@@H](NC(=O)[C@@H](N)CC(=O)O)CSSC[C@@H]2NC(=O)[C@@H]3CSSC[C@@H](C(=O)N[C@@H](CCCCN)C(=O)N[C@@H](Cc4ccc(O)cc4)C(=O)N[C@H](C(=O)N[C@@H](Cc4ccccc4)C(N)=O)C(C)C)NC(=O)[C@H](Cc4c[nH]c5ccccc45)NC(=O)[C@H](CCCCN)NC(=O)[C@H](Cc4cnc[nH]4)NC(=O)[C@H]([C@@H](C)O)NC(=O)[C@H](CCCNC(=N)N)NC(=O)[C@H](CO)NC(=O)[C@H](CSSC[C@H](NC(=O)[C@H](CCCCN)NC(=O)[C@H](CCCNC(=N)N)NC1=O)C(=O)N[C@@H](C)C(=O)N1CCC[C@H]1C(=O)N[C@@H](CC(=O)O)C(=O)N[C@@H](CC(N)=O)C(=O)N[C@@H](CC(=O)O)C(=O)N[C@@H](CCCCN)C(=O)N3)NC(=O)[C@H](C(C)C)NC(=O)[C@H](CC(C)C)NC(=O)[C@H](CC(N)=O)NC(=O)[C@@H]1CCCN1C(=O)[C@H](CCCNC(=N)N)NC2=O` (H-DCLGFMRKCAPDNDKCCRPNLVCSRTHKWCKYVF-NH2; disulfide 2-17, 9-23, 16-30): the IC50 is above 5 µM. `CCCC[C@@H]1NC(=O)[C@H](C)NC(=O)CNC(=O)[C@H](CC(C)C)NC(=O)[C@@H](NC(=O)[C@@H](N)CC(=O)O)CSSC[C@@H]2NC(=O)[C@@H]3CSSC[C@@H](C(=O)N[C@@H](CCCCN)C(=O)N[C@@H](Cc4ccc(O)cc4)C(=O)N[C@H](C(=O)N[C@@H](Cc4ccccc4)C(N)=O)C(C)C)NC(=O)[C@H](Cc4c[nH]c5ccccc45)NC(=O)[C@H](CCCCN)NC(=O)[C@H](Cc4cnc[nH]4)NC(=O)[C@H]([C@@H](C)O)NC(=O)[C@H](CCCNC(=N)N)NC(=O)[C@H](CO)NC(=O)[C@H](CSSC[C@H](NC(=O)[C@H](CCCCN)NC(=O)[C@H](CCCNC(=N)N)NC1=O)C(=O)N[C@@H]([C@@H](C)CC)C(=O)N1CCC[C@H]1C(=O)N[C@@H](CC(=O)O)C(=O)N[C@@H](CC(N)=O)C(=O)N[C@@H](CC(=O)O)C(=O)N[C@@H](CCCCN)C(=O)N3)NC(=O)[C@H](C(C)C)NC(=O)[C@H](CC(C)C)NC(=O)[C@H](CC(N)=O)NC(=O)[C@@H]1CCCN1C(=O)[C@H](CCCNC(=N)N)NC2=O` gave an IC50 above 10 µM.

With `CC[C@H](C)[C@@H]1NC(=O)[C@@H]2CSSC[C@@H]3NC(=O)[C@H](C)NC(=O)[C@H](CC(C)C)NC(=O)[C@H](CC(N)=O)NC(=O)[C@@H]4CCCN4C(=O)[C@H](CCCNC(=N)N)NC(=O)[C@H](CSSC[C@H](NC(=O)[C@@H](N)CC(=O)O)C(=O)N[C@@H](CC(C)C)C(=O)NCC(=O)N[C@@H](Cc4ccccc4)C(=O)N[C@@H](CCSC)C(=O)N[C@@H](CCCNC(=N)N)C(=O)N[C@@H](CCCCN)C(=O)N2)NC(=O)[C@H](CSSC[C@@H](C(=O)N[C@@H](CCCCN)C(=O)N[C@@H](Cc2ccc(O)cc2)C(=O)N[C@H](C(=O)N[C@@H](Cc2ccccc2)C(N)=O)C(C)C)NC(=O)[C@H](Cc2c[nH]c4ccccc24)NC(=O)[C@H](CCCCN)NC(=O)[C@H](Cc2cnc[nH]2)NC(=O)[C@H]([C@@H](C)O)NC(=O)[C@H](CCCNC(=N)N)NC(=O)[C@H](CO)NC3=O)NC(=O)[C@H](CCCCN)NC(=O)[C@H](CC(=O)O)NC(=O)[C@H](CC(N)=O)NC(=O)[C@H](CC(=O)O)NC(=O)[C@@H]2CCCN2C1=O` (H-DCLGFMRKCIPDNDKCCRPNLACSRTHKWCKYVF-NH2; disulfide 2-17, 9-23, 16-30), the IC50 was above 5 µM.

The compound `CCCC[C@@H]1NC(=O)[C@H](Cc2ccccc2)NC(=O)CNC(=O)[C@H](CC(C)C)NC(=O)[C@@H](NC(=O)[C@@H](N)CC(=O)O)CSSC[C@@H]2NC(=O)[C@@H]3CSSC[C@@H](C(=O)N[C@@H](CCCCN)C(=O)N[C@@H](Cc4ccc(O)cc4)C(=O)N[C@H](C(=O)N[C@@H](Cc4ccccc4)C(N)=O)C(C)C)NC(=O)[C@H](Cc4c[nH]c5ccccc45)NC(=O)[C@H](CCCCN)NC(=O)[C@H](Cc4cnc[nH]4)NC(=O)[C@H]([C@@H](C)O)NC(=O)[C@H](CCCNC(=N)N)NC(=O)[C@H](CO)NC(=O)[C@H](CSSC[C@H](NC(=O)[C@H](CCCCN)NC(=O)[C@H](CCCNC(=N)N)NC1=O)C(=O)N[C@@H]([C@@H](C)CC)C(=O)N1CCC[C@H]1C(=O)N[C@@H](CC(=O)O)C(=O)N[C@@H](CC(N)=O)C(=O)N[C@@H](CC(=O)O)C(=O)N[C@@H](CCCCN)C(=O)N3)NC(=O)[C@H](C(C)C)NC(=O)[C@H](CC(C)C)NC(=O)[C@H](CC(N)=O)NC(=O)[C@@H]1CCCN1C(=O)[C@H](CCCNC(=N)N)NC2=O` had an IC50 of 1.1 µM. `CC[C@H](C)[C@@H]1NC(=O)[C@@H]2CSSC[C@@H]3NC(=O)[C@H](C(C)C)NC(=O)[C@H](CC(C)C)NC(=O)[C@H](C)NC(=O)[C@@H]4CCCN4C(=O)[C@H](CCCNC(=N)N)NC(=O)[C@H](CSSC[C@H](NC(=O)[C@@H](N)CC(=O)O)C(=O)N[C@@H](CC(C)C)C(=O)NCC(=O)N[C@@H](Cc4ccccc4)C(=O)N[C@@H](CCSC)C(=O)N[C@@H](CCCNC(=N)N)C(=O)N[C@@H](CCCCN)C(=O)N2)NC(=O)[C@H](CSSC[C@@H](C(=O)N[C@@H](CCCCN)C(=O)N[C@@H](Cc2ccc(O)cc2)C(=O)N[C@H](C(=O)N[C@@H](Cc2ccccc2)C(N)=O)C(C)C)NC(=O)[C@H](Cc2c[nH]c4ccccc24)NC(=O)[C@H](CCCCN)NC(=O)[C@H](Cc2cnc[nH]2)NC(=O)[C@H]([C@@H](C)O)NC(=O)[C@H](CCCNC(=N)N)NC(=O)[C@H](CO)NC3=O)NC(=O)[C@H](CCCCN)NC(=O)[C@H](CC(=O)O)NC(=O)[C@H](CC(N)=O)NC(=O)[C@H](CC(=O)O)NC(=O)[C@@H]2CCCN2C1=O` (H-DCLGFMRKCIPDNDKCCRPALVCSRTHKWCKYVF-NH2; disulfide 2-17, 9-23, 16-30) gave an IC50 above 5 µM.

Compound `CC[C@H](C)[C@@H]1NC(=O)[C@@H]2CSSC[C@@H]3NC(=O)[C@H](C(C)C)NC(=O)[C@H](CC(C)C)NC(=O)[C@H](CC(N)=O)NC(=O)[C@@H]4CCCN4C(=O)[C@H](CCCNC(=N)N)NC(=O)[C@H](CSSC[C@H](NC(=O)[C@@H](N)CC(=O)O)C(=O)N[C@@H](CC(C)C)C(=O)N[C@@H](C)C(=O)N[C@@H](Cc4ccccc4)C(=O)N[C@@H](CCSC)C(=O)N[C@@H](CCCNC(=N)N)C(=O)N[C@@H](CCCCN)C(=O)N2)NC(=O)[C@H](CSSC[C@@H](C(=O)N[C@@H](CCCCN)C(=O)N[C@@H](Cc2ccc(O)cc2)C(=O)N[C@H](C(=O)N[C@@H](Cc2ccccc2)C(N)=O)C(C)C)NC(=O)[C@H](Cc2c[nH]c4ccccc24)NC(=O)[C@H](CCCCN)NC(=O)[C@H](Cc2cnc[nH]2)NC(=O)[C@H]([C@@H](C)O)NC(=O)[C@H](CCCNC(=N)N)NC(=O)[C@H](CO)NC3=O)NC(=O)[C@H](CCCCN)NC(=O)[C@H](CC(=O)O)NC(=O)[C@H](CC(N)=O)NC(=O)[C@H](CC(=O)O)NC(=O)[C@@H]2CCCN2C1=O` (H-DCLAFMRKCIPDNDKCCRPNLVCSRTHKWCKYVF-NH2; disulfide 2-17, 9-23, 16-30) registered an IC50 above 5 µM.

(Values after ChEMBL document CHEMBL3414527, “Engineering potent and selective analogues of GpTx-1, a tarantula venom peptide antagonist of the Na(V)1.7 sodium channel” (J Med Chem, 2015).)
